Source: ChEMBL document CHEMBL1201862, “PubChem BioAssay data set” (2004)
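Assay format: 96-well plates, 48-hour exposure. GI50 = concentration required for 50% inhibition of growth.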 Activity calls are given as the source filed them. Rule as the data show it: active = GI50 up to about 1.1 µM and inactive = higher.

Columns and labels:
Test in all cases: DTP human tumour cell line panel, 48 h
[1] = test system: NCI/ADR-RES
[2] = test system: RPMI-8226
[3] = test system: A498
[4] = test system: HL-60
[5] = test system: HCT-116
[6] = test system: Malme-3M
[7] = test system: UACC-257
[8] = test system: SR
[9] = test system: MCF7
[10] = test system: SK-MEL-5
[11] = test system: SNB-19
[12] = test system: HCC 2998
[13] = test system: EKVX
[14] = test system: OVCAR-4
[15] = test system: SF-268
[16] = test system: ACHN
[17] = test system: BT-549
[18] = test system: SF-295
[19] = test system: K562
[20] = test system: NCI-H460
[21] = test system: SNB-75
[22] = test system: UACC-62
[23] = test system: PC-3
[24] = test system: RXF 393
[25] = test system: NCI-H23
[26] = test system: SW-620
[27] = test system: OVCAR-3
[28] = test system: HOP-92
[29] = test system: OVCAR-8
[30] = test system: SF-539
[31] = test system: CAKI-1
[32] = test system: SK-MEL-28
[33] = test system: SN12C
[34] = test system: T47D
[35] = test system: COLO 205
[36] = test system: UO-31
[37] = test system: MDA-MB-231
[38] = test system: CCRF-CEM
[39] = test system: SK-MEL-2
[40] = test system: MDA-N
[41] = test system: OVCAR-5
[42] = test system: IGROV-1
[43] = test system: A549
[44] = test system: KM12
[45] = test system: Hs-578T
[46] = test system: HOP-62
[47] = test system: HCT-15
[48] = test system: 786-0
[49] = test system: MDA-MB-435
[50] = test system: MOLT-4
[51] = test system: NCI-H522
[52] = test system: LOX IMVI
[53] = test system: M14
[54] = test system: TK-10
[55] = test system: HT-29
[56] = test system: U-251
[57] = test system: SK-OV-3
[58] = test system: NCI-H226
[59] = test system: DU-145

## OCCCCCNc1cc(O)nc(O)n1
[1]
  GI50: > 100 µM (inactive)
[2]
  GI50: > 100 µM (inactive)
[3]
  GI50: > 100 µM (inactive)
[4]
  GI50: > 100 µM (inactive)
[5]
  GI50: > 100 µM (inactive)
[6]
  GI50: > 100 µM (inactive)
[7]
  GI50: > 100 µM (inactive)
[8]
  GI50: > 100 µM (inactive)
[9]
  GI50: > 100 µM (inactive)
[10]
  GI50: > 100 µM (inactive)
[11]
  GI50: > 100 µM (inactive)
[12]
  GI50: > 100 µM (inactive)
[13]
  GI50: > 100 µM (inactive)
[14]
  GI50: > 100 µM (inactive)
[15]
  GI50: > 100 µM (inactive)
[16]
  GI50: > 100 µM (inactive)
[17]
  GI50: > 100 µM (inactive)
[18]
  GI50: > 100 µM (inactive)
[19]
  GI50: > 100 µM (inactive)
[20]
  GI50: > 100 µM (inactive)
[21]
  GI50: > 100 µM (inactive)
[22]
  GI50: > 100 µM (inactive)
[23]
  GI50: > 100 µM (inactive)
[24]
  GI50: > 100 µM (inactive)
[25]
  GI50: > 100 µM (inactive)
[26]
  GI50: > 100 µM (inactive)
[27]
  GI50: > 100 µM (inactive)
[28]
  GI50: > 100 µM (inactive)
[29]
  GI50: > 100 µM (inactive)
[30]
  GI50: > 100 µM (inactive)
[31]
  GI50: > 100 µM (inactive)
[32]
  GI50: > 100 µM (inactive)
[33]
  GI50: > 100 µM (inactive)
[34]
  GI50: > 100 µM (inactive)
[35]
  GI50: > 100 µM (inactive)
[36]
  GI50: > 100 µM (inactive)
[37]
  GI50: > 100 µM (inactive)
[38]
  GI50: > 100 µM (inactive)
[39]
  GI50: > 100 µM (inactive)
[40]
  GI50: > 100 µM (inactive)
[41]
  GI50: > 100 µM (inactive)
[42]
  GI50: > 100 µM (inactive)
[43]
  GI50: > 100 µM (inactive)
[44]
  GI50: > 100 µM (inactive)
[45]
  GI50: > 100 µM (inactive)
[46]
  GI50: > 100 µM (inactive)
[47]
  GI50: > 100 µM
[48]
  GI50: > 100 µM (inactive)
[49]
  GI50: > 100 µM (inactive)
[50]
  GI50: > 100 µM (inactive)
[51]
  GI50: > 100 µM (inactive)
[52]
  GI50: > 100 µM (inactive)
[53]
  GI50: > 100 µM (inactive)
[54]
  GI50: > 100 µM (inactive)
[55]
  GI50: > 100 µM (inactive)
[56]
  GI50: > 100 µM (inactive)
[57]
  GI50: > 100 µM (inactive)
[58]
  GI50: > 100 µM (inactive)

## CO[C@]12C[C@H](CNC(=O)c3cc(Br)c(Br)[nH]3)O[C@H]1NC(=O)N2
[1]
  GI50: > 100 µM (inactive)
[2]
  GI50: > 100 µM (inactive)
[3]
  GI50: > 100 µM (inactive)
[4]
  GI50: > 100 µM (inactive)
[5]
  GI50: > 100 µM (inactive)
[6]
  GI50: > 100 µM (inactive)
[7]
  GI50: > 100 µM (inactive)
[8]
  GI50: > 100 µM (inactive)
[9]
  GI50: > 100 µM (inactive)
[10]
  GI50: > 100 µM (inactive)
[11]
  GI50: > 100 µM (inactive)
[12]
  GI50: > 100 µM (inactive)
[13]
  GI50: > 100 µM (inactive)
[14]
  GI50: > 100 µM (inactive)
[15]
  GI50: > 100 µM (inactive)
[16]
  GI50: > 100 µM (inactive)
[17]
  GI50: > 100 µM (inactive)
[18]
  GI50: > 100 µM (inactive)
[19]
  GI50: > 100 µM (inactive)
[20]
  GI50: > 100 µM (inactive)
[21]
  GI50: > 100 µM (inactive)
[22]
  GI50: > 100 µM (inactive)
[23]
  GI50: > 100 µM (inactive)
[25]
  GI50: > 100 µM (inactive)
[59]
  GI50: > 100 µM (inactive)
[26]
  GI50: > 100 µM (inactive)
[27]
  GI50: > 100 µM (inactive)
[28]
  GI50: 25.2 µM (inactive)
[29]
  GI50: > 100 µM (inactive)
[30]
  GI50: > 100 µM (inactive)
[31]
  GI50: > 100 µM (inactive)
[32]
  GI50: > 100 µM (inactive)
[33]
  GI50: > 100 µM (inactive)
[34]
  GI50: > 100 µM (inactive)
[35]
  GI50: > 100 µM (inactive)
[36]
  GI50: > 100 µM (inactive)
[37]
  GI50: > 100 µM (inactive)
[38]
  GI50: 0.548 µM (active)
[39]
  GI50: > 100 µM (inactive)
[41]
  GI50: > 100 µM (inactive)
[42]
  GI50: > 100 µM (inactive)
[43]
  GI50: > 100 µM (inactive)
[44]
  GI50: > 100 µM (inactive)
[45]
  GI50: > 100 µM (inactive)
[46]
  GI50: > 100 µM (inactive)
[47]
  GI50: > 100 µM
[48]
  GI50: > 100 µM (inactive)
[49]
  GI50: > 100 µM (inactive)
[50]
  GI50: > 100 µM (inactive)
[51]
  GI50: > 100 µM (inactive)
[52]
  GI50: > 100 µM (inactive)
[53]
  GI50: > 100 µM (inactive)
[54]
  GI50: > 100 µM (inactive)
[55]
  GI50: > 100 µM (inactive)
[56]
  GI50: > 100 µM (inactive)
[57]
  GI50: > 100 µM (inactive)
[58]
  GI50: > 100 µM (inactive)
